Reference: patent US10196363B2, “Dihydropyrimidin-2-one compounds and medical use thereof” (JAPAN TOBACCO INC., priority 2014, dated 2019)
pEC50: −log10 of the molar value.

What was measured:
human RORγ = molecular target: T1, human RORγ (Homo sapiens, UniProt P51449); test: In vitro assay of inhibitory effect against RORγ transcriptional activity (GAL4-hRORγ LBD luciferase reporter gene assay in CHO cells); format: cell-based; conditions: for pEC50: GAL4-hRORγ LBD / pG5-Luc in CHO cells, 2 days incubation; for hRORγ luciferase activity, %-of-control: value in parentheses beside the > EC50 bound, vehicle-control 0.2% DMSO alone = 100%
T1 construct: human RORγ, from Ser253 to Lys518; expressed in transfected cells; host or cells: CHO cells (Chinese hamster ovary), transient co-transfection with pG5-Luc
T1 sequence (P51449 253-518): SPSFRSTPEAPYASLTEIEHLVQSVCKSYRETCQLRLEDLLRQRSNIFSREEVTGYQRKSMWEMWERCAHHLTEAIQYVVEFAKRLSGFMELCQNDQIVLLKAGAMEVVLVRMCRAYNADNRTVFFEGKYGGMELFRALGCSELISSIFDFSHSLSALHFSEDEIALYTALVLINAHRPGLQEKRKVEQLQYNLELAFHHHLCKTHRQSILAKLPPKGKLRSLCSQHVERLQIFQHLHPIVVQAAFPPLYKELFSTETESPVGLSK
Summary of the method: (§1)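 CHO cells, transient GAL4-RORγ LBD + pG5-Luc; cmpd 8 conc, 0.2% DMSO, 2 d, 37 °C, 5% CO2. SteadyLite luminescence, %-of-DMSO control (100%), EC50 by curve fit. Cytotoxic concentrations (resazurin) excluded.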

mouse RORγ = molecular target: T2, mouse RORγ (Mus musculus, UniProt P51450); test: In vitro assay of inhibitory effect against RORγ transcriptional activity (GAL4-mRORγ LBD luciferase reporter gene assay in CHO cells); format: cell-based; conditions: for pEC50: GAL4-mRORγ LBD / pG5-Luc in CHO cells, 2 days incubation; for mRORγ luciferase activity, %-of-control: value in parentheses beside the > EC50 bound, vehicle-control 0.2% DMSO alone = 100%
T2 construct: mouse RORγ, from Ile251 to Lys516; expressed in transfected cells; host or cells: CHO cells (Chinese hamster ovary), transient co-transfection with pG5-Luc
T2 sequence (P51450 251-516): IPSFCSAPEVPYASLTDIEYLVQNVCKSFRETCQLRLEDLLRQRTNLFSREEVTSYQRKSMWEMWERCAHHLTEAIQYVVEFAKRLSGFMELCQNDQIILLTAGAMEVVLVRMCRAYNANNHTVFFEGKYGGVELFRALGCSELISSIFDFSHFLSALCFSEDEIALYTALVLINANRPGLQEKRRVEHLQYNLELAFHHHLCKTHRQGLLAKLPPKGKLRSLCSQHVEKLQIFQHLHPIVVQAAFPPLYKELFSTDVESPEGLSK
Summary of the method: as §1

| Compound | pEC50 (human RORγ) | pEC50 (mouse RORγ) | mRORγ luciferase activity, %-of-control (mouse RORγ) | hRORγ luciferase activity, %-of-control (human RORγ) |
| --- | --- | --- | --- | --- |
| CC1=CN(CCCC(=O)O)C(=O)N[C@]1(C)c1ccc(CCC(C)(C)C)c(Cl)c1 [Example 60] | 4.82 | 4.91 |  |  |
| CC(C)C1=CN([C@H]2CC[C@@H](C(=O)O)CC2)C(=O)N[C@]1(C)c1ccc(CCC(C)(C)C)c(Cl)c1 [Example 66] | 5.44 | 5.57 |  |  |
| CC(C)C1=CN([C@H]2CC[C@@H](C(=O)O)CC2)C(=O)N[C@@]1(C)c1ccc(CCC(C)(C)C)c(Cl)c1 [Example 67] | 7.64 | 7.77 |  |  |
| CCC1=CN(CCCC(=O)O)C(=O)N[C@@]1(C)c1ccc(CCC(C)(C)C)c(Cl)c1 [Example 69] | 7.70 | 7.77 |  |  |
| CC(C)C1=CN(CCC2(C(=O)O)CC2)C(=O)N[C@]1(C)c1ccc(CCC(C)(C)C)c(Cl)c1 [Example 71] | 6.30 | 6.12 |  |  |
| CC(C)C1=CN(C(C)CCC(=O)O)C(=O)NC1(C)c1ccc(CCC(C)(C)C)c(Cl)c1 (centres unmarked) [Example 73] | 6.10 | 6.18 |  |  |
| CC(C)C1=CN(CCCC(C)(C)C(=O)O)C(=O)N[C@@]1(C)c1ccc(CCC(C)(C)C)c(Cl)c1 [Example 75] | 6.53 | 6.50 |  |  |
| CC(C)C1=CN(C23CC(C(=O)O)(C2)C3)C(=O)N[C@]1(C)c1ccc(CCC(C)(C)C)c(Cl)c1 [Example 76] | 5.46 | 5.20 |  |  |
| CC(C)C1=CN(C23CC(C(=O)O)(C2)C3)C(=O)N[C@@]1(C)c1ccc(CCC(C)(C)C)c(Cl)c1 [Example 77] | 7.82 | 7.62 |  |  |
| CC(C)C1=CN([C@H]2CC[C@H](C(=O)O)CC2)C(=O)N[C@@]1(C)c1ccc(CCC(C)(C)C)c(Cl)c1 [Example 79] | 7.80 | 7.74 |  |  |
| CC(C)C1=CN(CCc2ccccc2C(=O)O)C(=O)N[C@]1(C)c1ccc(CCC(C)(C)C)c(Cl)c1 [Example 82] | 6.01 | 6.10 |  |  |
| CC(C)C1=CN(CCC(=O)O)C(=O)N[C@]1(C)c1ccc(CCC(C)(C)C)c(Cl)c1 [Example 86, 3-{(R)-4-[3-Chloro-4-(3,3-dimethyl-butyl)-phenyl]-5-isopropyl-4-methyl-2-oxo-3,4-dihydro-2H-pyrimidin-1-yl}-propionic Acid] | 5.17 | < 5.10 | (51%) |  |
| CC(C)C1=CN(CCC(=O)O)C(=O)N[C@@]1(C)c1ccc(CCC(C)(C)C)c(Cl)c1 [Example 87, 3-{(S)-4-[3-Chloro-4-(3,3-dimethyl-butyl)-phenyl]-5-isopropyl-4-methyl-2-oxo-3,4-dihydro-2H-pyrimidin-1-yl}-propionic Acid] | 7.96 | 7.82 |  |  |
| CC(C)C1=CN(CC[C@@H](O)C(=O)O)C(=O)N[C@]1(C)c1ccc(CCC(C)(C)C)c(Cl)c1 [Example 88] | 6.35 | 6.37 |  |  |
| CC(C)(C)CCc1ccc([C@]2(C)NC(=O)N(CCCC(=O)O)C=C2C2CCOCC2)cc1Cl [Example 92] | 7.89 | 7.70 |  |  |
| CC(C)C1=CN(CC(=O)O)C(=O)N[C@@]1(C)c1ccc(CCC(C)(C)C)c(Cl)c1 [Example 94] | 6.82 | 6.85 |  |  |
| CC(C)(C)CCc1ccc([C@@]2(C)NC(=O)N([C@H]3C[C@H](C(=O)O)C3)C=C2C2CC(F)(F)C2)cc1Cl [Example 95] | < 5.49 | 5.25 |  | (66%) |
| CC(C)(C)CCc1ccc([C@]2(C)NC(=O)N([C@H]3C[C@H](C(=O)O)C3)C=C2C2CC(F)(F)C2)cc1Cl [Example 96] | 7.48 | 7.59 |  |  |
| CC(C)C1=CN([C@H]2C[C@H](C(=O)O)C2)C(=O)N[C@]1(C)c1cc(Cl)c(CCC(C)(C)C)cc1F [Example 103] | < 5.49 | < 5.49 | (50%) | (65%) |
| CC(C)C1=CN([C@H]2C[C@H](CC(=O)O)C2)C(=O)N[C@@]1(C)c1ccc(CCC(C)(C)C)c(Cl)c1 [Example 108] | 7.80 | 7.68 |  |  |
| CC(C)C1=CN(CCCC(=O)O)C(=O)N[C@]1(C)c1ccc(CCC2CCC2)c(Cl)c1 [Example 109] | < 5.10 | < 5.10 | (67%) | (60%) |
| CC(C)C1=CN([C@H]2C[C@](C)(C(=O)O)C2)C(=O)N[C@]1(C)c1ccc(CCC(C)(C)C)c(Cl)c1 [Example 111] | 6.39 | 6.32 |  |  |
| CC(C)C1=CN([C@H]2C[C@](C)(C(=O)O)C2)C(=O)N[C@@]1(C)c1ccc(CCC(C)(C)C)c(Cl)c1 [Example 112] | 7.68 | 7.72 |  |  |
| CC(C)C1=CN(CCC(=O)O)C(=O)N[C@@]1(C)c1ccc2c(c1)CC(C)(C)C2 [Example 113] | 5.52 | 5.85 |  |  |
| CC(C)C1=CN(CCC(=O)O)C(=O)N[C@]1(C)c1ccc(C2=CCC(C)(C)CC2)c(Cl)c1 [Example 115, 3-{(R)-4-[3-Chloro-4-(4,4-dimethyl-cyclohex-1-enyl)-phenyl]-5-isopropyl-4-methyl-2-oxo-3,4-dihydro-2H-pyrimidin-1-yl}-propionic Acid] | < 5.10 | < 5.10 | (100%) | (110%) |
| CC(C)C1=CN(CCC(=O)O)C(=O)N[C@@]1(C)c1ccc(C2=CCC(C)(C)CC2)c(Cl)c1 [Example 116, 3-{(S)-4-[3-chloro-4-(4,4-dimethyl-cyclohex-1-enyl)-phenyl]-5-isopropyl-4-methyl-2-oxo-3,4-dihydro-2H-pyrimidin-1-yl}-propionic Acid] | 7.82 | 7.66 |  |  |
| CC(C)C1=CN(CCC(=O)O)C(=O)N[C@]1(C)c1ccc(C2CCC(C)(C)CC2)c(Cl)c1 [Example 117] | < 5.49 | < 5.10 | (76%) | (106%) |
| CC(C)C1=CN(CCC(=O)O)C(=O)N[C@@]1(C)c1ccc(C2CCC(C)(C)CC2)c(Cl)c1 [Example 118] | 7.72 | 7.77 |  |  |

Next, values leading:

| pEC50 (human RORγ) | pEC50 (mouse RORγ) | mRORγ luciferase activity, %-of-control (mouse RORγ) | hRORγ luciferase activity, %-of-control (human RORγ) | Compound |
| --- | --- | --- | --- | --- |
| 7.92 | 7.70 |  |  | CC(C)(C)CCc1ccc([C@]2(C)NC(=O)N(CCCC(=O)O)C=C2C2CCC2)cc1Cl [Example 59] |
| 6.84 | 7.34 |  |  | CC1=CN(CCCC(=O)O)C(=O)N[C@@]1(C)c1ccc(CCC(C)(C)C)c(Cl)c1 [Example 61] |
| 5.91 | 5.76 |  |  | CCC1=CN(CCCC(=O)O)C(=O)N[C@]1(C)c1ccc(CCC(C)(C)C)c(Cl)c1 [Example 68] |
| 7.89 | 7.77 |  |  | CC(C)C1=CN(CCC2(C(=O)O)CC2)C(=O)N[C@@]1(C)c1ccc(CCC(C)(C)C)c(Cl)c1 [Example 72] |
| 6.01 | 5.96 |  |  | CC(C)C1=CN(CCCC(C)(C)C(=O)O)C(=O)N[C@]1(C)c1ccc(CCC(C)(C)C)c(Cl)c1 [Example 74] |
| 5.19 | 4.97 |  |  | CC(C)C1=CN([C@H]2CC[C@H](C(=O)O)CC2)C(=O)N[C@]1(C)c1ccc(CCC(C)(C)C)c(Cl)c1 [Example 78] |
| 7.40 | 7.37 |  |  | CC(C)C1=CN(CCc2ccccc2C(=O)O)C(=O)N[C@@]1(C)c1ccc(CCC(C)(C)C)c(Cl)c1 [Example 83] |
| 7.80 | 7.80 |  |  | CC(C)C1=CN(CC[C@@H](O)C(=O)O)C(=O)N[C@@]1(C)c1ccc(CCC(C)(C)C)c(Cl)c1 [Example 89] |
| 6.27 | 5.94 |  |  | CC(C)(C)CCc1ccc([C@@]2(C)NC(=O)N(CCCC(=O)O)C=C2C2CCOCC2)cc1Cl [Example 91] |
| 5.67 | 5.59 |  |  | CC(C)C1=CN(CC(=O)O)C(=O)N[C@]1(C)c1ccc(CCC(C)(C)C)c(Cl)c1 [Example 93] |
| 5.87 | 5.51 |  |  | CC(C)C1=CN(CC2(C(=O)O)CC2)C(=O)N[C@]1(C)c1ccc(CCC(C)(C)C)c(Cl)c1 [Example 97] |
| 7.89 | 7.74 |  |  | CC(C)C1=CN(CC2(C(=O)O)CC2)C(=O)N[C@@]1(C)c1ccc(CCC(C)(C)C)c(Cl)c1 [Example 98] |
| 5.82 | 5.54 |  |  | CC(C)(C)CCc1ccc([C@@]2(C)NC(=O)N([C@H]3C[C@H](C(=O)O)C3)C=C2C2CCOCC2)cc1Cl [Example 99] |
| 7.70 | 7.46 |  |  | CC(C)(C)CCc1ccc([C@]2(C)NC(=O)N([C@H]3C[C@H](C(=O)O)C3)C=C2C2CCOCC2)cc1Cl [Example 100] |
| 7.30 | 7.51 |  |  | CC(C)C1=CN([C@H]2C[C@H](C(=O)O)C2)C(=O)N[C@@]1(C)c1cc(Cl)c(CCC(C)(C)C)cc1F [Example 104] |
| 7.96 | 8.00 |  |  | CC(C)C1=CN(CCCC(=O)O)C(=O)N[C@@]1(C)c1ccc(CCC2CCC2)c(Cl)c1 [Example 110] |
